Laboratory results: patent publication US20100036088A1, “Selective poly-N-substituted glycine antibiotics” (priority 2008, published 2010)
Square brackets hold non-standard residues; d marks the D form. Peptide text beside a SMILES is read from it. Gly(N-CH2CH2-imidazol-4-yl) = O=C(O)CNCCc1c[nH]cn1; Nspe = C[C@H](NCC(=O)O)c1ccccc1; Nlys = NCCCCNCC(=O)O

Columns and labels:
[1] = system: A549 lung epithelial cells; experiment: MTS assay, metabolic inhibition
Protocol: The biocompatibility of selected oligomers with A549 lung epithelial cells was evaluated using the MTS [3-(4,5-dimethylthiazol-2-yl)-5-(3-carboxymethoxyphenyl)-2-(4-sulfophenyl)-2H-tetrazolium] assay.
MTS Assays. A549 carcinoma-derived lung epithelial cells (ATTC CCL-185) were cultured in Ham's F12K media (ATTC, Manassas, Va.). A peptoid solution plate (100 μL/well) was prepared by serial dilution of aqueous peptoid stocks in media. Peptoid solutions were transferred onto a 96-well plate of day-old cell monolayers containing 100 μL/well media with ˜5000 cells/well. MTS reagent (Promega Corporation, Madison, Wis.) (40 μL/well) was added to each well and the plate was incubated at 37° C. for 3 h, after which absorbance at 490 nm was determined. Percent inhibition was determined as [1−(A−Atest blank)/(Acontrol−Ablank)]×100, where A is the absorbance of the test well and Acontrol the average absorbance of wells with cells exposed to media and MTS (no peptoid). Atest blank (media, MTS, and peptoid) and Ablank (media and MTS) were background absorbances measured in the absence of cells. The average of six replicates are reported, and error bars show one standard deviation.

[2] = system: Staphyloccus aureus (ATCC #25923); experiment: Murine intraperitoneal infection model; type: in vivo; conditions: mouse, 4 mg/kg I.P.; eleven mice treated with 1-Nhis6,12
Protocol: Using a murine peritoneal injection mouse model, the ability of peptoids to treat infection was evaluated in vivo. The results from three separate studies of peptoid 1 and two of peptoid 1-Nhis6,12 against saline treated controls are shown in FIG. 7. The horizontal line represents the geometric mean of each population.
Murine intraperitoneal infection model. Bacteria was prepared by inoculating 5 mL of MHB with a single colony of Staphyloccus aureus (ATCC #25923) from a freshly streaked plate and grown overnight at 37 C. The following morning, the bacteria was subcultured by diluting 1/3 in MHB and grown for approximately 1.5 hours. The bacteria were then diluted 10-fold in a 5% mucin in PBS solution and thoroughly mixed. A sample was reserved to later determine the amount of bacteria the mice received.
Mice were weighed, marked, and injected I.P. with 200 uL of S. aureus inoculum. Four hours post infection, mice were treated I.P. with 4 mg/kg peptoid (˜100 ug per mouse). The infection is allowed to proceed overnight. Mice were euthanized by CO2 asphyxiation after 24 hours, and the peritoneal cavity was exposed and lavaged with 5 mL PBS. The lavage was mixed and reserved on ice until plating. […] Colonies were counted the following day, and the CFU/ml of each sample was calculated. […]

B. subtilis (ATCC 6633) = type: cell-based; conditions: ATCC 6633
Procedure, shortened: (§1)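 MICs by broth microdilution per CLSI M7-A6 in cation-adjusted Mueller-Hinton broth, using 2:1 serial dilutions of peptoid and a bacterial inoculum of 1×10^6 CFU/mL. Values reproducible over three experiments, each with two parallel trials.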

E. coli (ATCC 35218) = type: cell-based; conditions: ATCC 35218
Procedure, shortened: as §1

E. coli JM109 = type: cell-based
From the text: (§2) An initial set of 15 ampetoid analogs was synthesized to determine whether peptoids are affected by structural and sequence modifications in a manner consistent with AMP activities. The designs for ampetoids in this library were derived from two antibacterial and selective amphipathic dodecamers, 1 and 2. Peptoid 1 [H-(Nlys-Nspe-Nspe)4—NH2] is composed of 2/3 Nspe, the peptoid analog of phenylalanine, and 1/3 Nlys, the peptoid analog of lysine (see FIG. 1 for the structures of representative peptoid monomers and corresponding N-substituents). Peptoid 2 [H-(Nlys-Nssb-Nspe)4—NH2] contains 1/3 isoleucine-like Nssb monomers in place of Nspe. The variant sequences were designed to effect changes in chirality, length, hydrophobicity, charge, and amphipathicity. All of these compounds were tested for antibacterial activity against representative BSL1 Gram-negative (E. coli JM109) and Gram-positive (B. subtilis BR151) bacterial strains. As an initial measure of selectivity, the lytic activity of the peptoids was determined against human erythrocytes. Table 1 summarizes the sequences synthesized, the solvent composition at RP-HPLC elution as a relative measure of molecular hydrophobicity, and antibacterial and hemolytic activities.
(§3) Antibacterial assays. MICs were determined according to CLSI M7-A6 protocols in a 96-well microtiter plate. In test wells, 50 μL bacterial inoculum (5×10^5 CFU/ml) in Mueller-Hinton broth (MHB) was added to 50 μL peptoid solution in MHB (prepared by 1:2 serial dilutions). Positive controls contained 50 μL inoculum and 50 μL MHB without peptoid. […] MIC values reported were reproducible between three independent experimental replicates, each consisting of two parallel trials. Broad-spectrum antimicrobial susceptibility testing was performed against BSL2 pathogens by Nova Biologicals, Inc. (Conroe, Tex.).

human erythrocytes = experiment: Hemolysis assay; type: cell-based
Procedure, shortened: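 Human erythrocytes from fresh heparinised blood, 20 vol % in PBS pH 7.4, mixed 1:1 with 2-fold serial peptoid dilutions; PBS as 0% and 0.2 vol % Triton X-100 as 100% hemolysis. Incubated 1 h at 37 °C, diluted, centrifuged 1200 g for 15 min; supernatant A350 read.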

B. subtilis BR151 = type: cell-based; conditions: Table 1
From the text: as §2, §3

C[C@@H](c1ccccc1)N(CC(=O)N(CCc1cnc[nH]1)CC(=O)N(CCCCN)CC(=O)N(CC(=O)N(CC(=O)N(CCCCN)CC(=O)N(CC(=O)N(CCc1cnc[nH]1)CC(N)=O)[C@@H](C)c1ccccc1)[C@@H](C)c1ccccc1)[C@@H](C)c1ccccc1)C(=O)CN(CCCCN)C(=O)CN(C(=O)CN(C(=O)CNCCCCN)[C@@H](C)c1ccccc1)[C@@H](C)c1ccccc1 [1-Nhis6,12] (H-[Nlys][Nspe][Nspe][Nlys][Nspe][Gly(N-CH2CH2-imidazol-4-yl)][Nlys][Nspe][Nspe][Nlys][Nspe][Gly(N-CH2CH2-imidazol-4-yl)]-NH2)
ID10 relative to that of pexiganan [1]: 20 times
mice that died prematurely during the exposure period [2]: eight
B. subtilis MIC (B. subtilis (ATCC 6633)): 1.6 µM
E. coli MIC (E. coli (ATCC 35218)): >50 µM
MICs (E. coli JM109; JM109): < 7 µM
HD10 (human erythrocytes): >110/>110 μM
HD50 (human erythrocytes): >110/>110 μM
HD10 (10% hemolytic dose) (human erythrocytes; red cells of human, 1 h): >110/>110 μM
HD50 (50% hemolytic dose) (human erythrocytes; red cells of human, 1 h): >110/>110 μM

C[C@H](c1ccccc1)N(CC(N)=O)C(=O)CN(C(=O)CN(CCCCN)C(=O)CN(C(=O)CN(C(=O)CN(CCCCN)C(=O)CN(C(=O)CN(C(=O)CN(CCCCN)C(=O)CN(C(=O)CN(C(=O)CNCCCCN)[C@H](C)c1ccccc1)[C@H](C)c1ccccc1)[C@H](C)c1ccccc1)[C@H](C)c1ccccc1)[C@H](C)c1ccccc1)[C@H](C)c1ccccc1)[C@H](C)c1ccccc1 [1enantiomer]
E. coli MIC (E. coli JM109; Table 1, E. coli JM109): 3.5 µM
B. subtilis MIC (B. subtilis BR151): 0.88 µM
HD10 (10% hemolytic dose) (human erythrocytes; Table 1, human erythrocytes): 16 µM
HD50 (50% hemolytic dose) (human erythrocytes; Table 1, human erythrocytes): 86 µM

C[C@@H](c1ccccc1)N(CC(N)=O)C(=O)CN(C(=O)CN(CCCCN)C(=O)CN(C(=O)CN(C(=O)CN(CCCCN)C(=O)CN(C(=O)CN(C(=O)CN(CCCCN)C(=O)CN(C(=O)CN(C(=O)CN(CCCCN)C(=O)CN(C(=O)CN(C(=O)CNCCCCN)[C@@H](C)c1ccccc1)[C@@H](C)c1ccccc1)[C@@H](C)c1ccccc1)[C@@H](C)c1ccccc1)[C@@H](C)c1ccccc1)[C@@H](C)c1ccccc1)[C@@H](C)c1ccccc1)[C@@H](C)c1ccccc1)[C@@H](C)c1ccccc1 [115 mer, H-(Nlys-Nspe-Nspe)5-NH2]
cytotoxicity (in words) ([1]; A549 cells, MTS assay, FIG. 2): no worse than pexiganan
HD10 (10% hemolytic dose) (human erythrocytes; red cells of human, 1 h): 3 µM
HD50 (50% hemolytic dose) (human erythrocytes; red cells of human, 1 h): 19 µM
